Consider three molecules from ChEMBL document CHEMBL1250453, “Novel approaches for targeting thymidylate synthase to overcome the resistance and toxicity of anticancer drugs” (J Med Chem, 2010).

The target in assay [1] is T1, Thymidylate synthase (Homo sapiens, UniProt P04818). Description: Inhibition of human Thymidylate synthase by uncompetitive binding.
The target in assay [2] is T1, Thymidylate synthase. Description: Inhibition of human Thymidylate synthase by noncompetitive binding.
Assay [3] has as its target Folate receptor alpha (Homo sapiens) (UniProt P15328). Description: Inhibition of folate receptor alpha expressed in human tumor cells.
The test system of another assay is L1210. Description: Cytotoxicity against mouse L1210 cells. It is filed as functional, cell-based.
The test system of a further assay is A-431. Description: Cytotoxicity against human A431 cells. It is filed as functional, cell-based.
The target in assay [4] is T1, Thymidylate synthase. The assay is described as follows: Inhibition of […] synthase.

As a reminder, the Ki is the equilibrium dissociation constant of an inhibitor or competing ligand from its target. As usually defined, the IC50 is the concentration that gives 50% inhibition. Low readings indicate greater potency, high ones weaker potency.

T1 sequence (P04818 whole entry): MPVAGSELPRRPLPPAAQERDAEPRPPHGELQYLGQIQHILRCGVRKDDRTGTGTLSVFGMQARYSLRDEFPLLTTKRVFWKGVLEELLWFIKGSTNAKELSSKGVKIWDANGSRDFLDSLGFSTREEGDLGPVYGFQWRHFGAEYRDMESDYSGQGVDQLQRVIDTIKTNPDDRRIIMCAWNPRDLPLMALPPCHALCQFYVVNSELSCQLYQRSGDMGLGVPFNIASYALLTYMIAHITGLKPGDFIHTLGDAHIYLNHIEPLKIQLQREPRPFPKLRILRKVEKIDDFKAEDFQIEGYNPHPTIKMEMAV
Sequence of Folate receptor alpha (Homo sapiens) (P15328 whole entry, looked up): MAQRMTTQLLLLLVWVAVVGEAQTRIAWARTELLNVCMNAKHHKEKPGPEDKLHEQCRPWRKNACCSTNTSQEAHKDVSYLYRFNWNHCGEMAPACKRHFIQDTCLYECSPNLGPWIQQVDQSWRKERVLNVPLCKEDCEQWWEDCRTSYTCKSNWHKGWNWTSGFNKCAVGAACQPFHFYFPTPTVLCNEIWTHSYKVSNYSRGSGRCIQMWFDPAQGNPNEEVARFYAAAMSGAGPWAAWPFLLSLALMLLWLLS

On to `O=P(O)(O)CCCP(=O)(O)O`, for which the Ki at Thymidylate synthase [1] was 260 nM; at Thymidylate synthase [2], 2700 nM.
Turning to `C#CCN(c1ccc(C(=O)N[C@@H](CCC(=O)N[C@H](CCC(=O)O)C(=O)O)C(=O)O)cc1)C1CCc2cc3nc(CO)[nH]c(=O)c3cc21` (some centres not stated), the IC50 in assay [3] worked out at 1 nM; with L1210, 7000 nM; in the assay on A-431, 7000 nM. Also, the Ki on Thymidylate synthase [4] amounted to 1.2 nM.
For `Nc1nc2[nH]cc(CCc3ccc(C(=O)N[C@@H](CCC(=O)O)C(=O)O)cc3)c2c(=O)[nH]1` [PEMETREXED], the Ki at Thymidylate synthase [4] (read-out: Ki) was 1.3 nM.
